In patent US20240099989A1, “AGENT FOR PREVENTING OR IMPROVING PERIPHERAL NEUROPATHY” (KINKI UNIVERSITY, priority 2021, published 2024):
Where two headings read alike, the source gives them in different places.

Experiments:
[1] = system: Peripheral Neuropathy in a Mouse Caused by Paclitaxel; type: in vivo, Balb/c mice; conditions: 6 mg/kg paclitaxel + 100 mg/kg orally daily from Day 6 (therapy); from Day 12 onwards
Description: (§1) Six to seven-week-old female Balb/c mice were used for the tests. All the mice were acclimated for seven days after arrival. Then, the mice were grouped into the following four groups: a control group, a group receiving paclitaxel, a group receiving xylitol, and a group receiving paclitaxel and xylitol (a group receiving paclitaxel+xylitol). Each group consisted of five mice.
(§2) On Day 8 of acclimation, the mice in the group receiving paclitaxel and the group receiving paclitaxel+xylitol were intraperitoneally administered with paclitaxel at a dose of 6 mg/kg. This day was designated as Day 0 of administration. Thereafter, these mice were intraperitoneally administered with paclitaxel at a daily dose of 6 mg/kg on Day 7 and Day 14.
The mice in the group receiving xylitol and the group receiving paclitaxel+xylitol were orally administered with xylitol at a dose of 5 mg/kg daily from Day 0.
The mice in the four groups described in (4) of the present example (Example 1) were placed in a cage, and the avoidance response frequency (score) was measured by pressing a filament with a bending force of 0.16 g against the back of the hind paw.
as §1, with “tests as with Example 1.” for “tests.”, “mice. […]” for “mice.”
For the mice in the four groups described in (6) of the present example (Example 2), the avoidance response frequency (score) was measured by pressing a filament with a bending force of 0.16 g against the back of the hind paw. […]
The mice in the four groups described in (4) of the present example (Example 3) were placed in a cage, and the avoidance response frequency (score) was measured by pressing a filament with a bending force of 0.16 g against the back of the hind paw. […]

[2] = system: Peripheral Neuropathy in a Mouse Caused by Bortezomib; type: in vivo, Balb/c mice
Description: as §1, with “bortezomib,” for “paclitaxel,”, “bortezomib” for “paclitaxel”, “bortezomib+xylitol).” for “paclitaxel+xylitol).”
as §2, with “bortezomib” for “paclitaxel”, “bortezomib+xylitol” for “paclitaxel+xylitol”, “1” for “6”
The mice in the group receiving xylitol and the group receiving bortezomib+xylitol were orally administered with xylitol at a dose of 5 mg/kg daily from Day 0.
(§3) A cold plate test was performed to examine the effect of xylitol on paresthesia that is caused by a low temperature stimulus. The mice in the four groups described in (10) of the present example (Example 1) were placed on a cold plate set at 10° C., and withdrawal response time (latent time) was measured. It is presumed that a shorter latent time reflects a greater degree of shunning the low temperature stimulus by the cold plate.
as §1, with “tests as with Example 1.” for “tests.”, “bortezomib,” for “paclitaxel,”, “bortezomib” for “paclitaxel”, “bortezomib+xylitol).” for “paclitaxel+xylitol).”
On Day 8 of acclimation, the mice in the group receiving bortezomib and the group receiving bortezomib+xylitol were intraperitoneally administered with bortezomib at a dose of 1 mg/kg. This day was designated as the first day of the administration (Day 0). Thereafter, these mice were intraperitoneally administered with bortezomib at the same dose on Day 7 and Day 14 for a total of 3 doses.
The mice in the group receiving 100 mg/kg xylitol were orally administered with xylitol at a dose of 100 mg/kg daily from Day 0. The mice in the group receiving bortezomib+100 mg/kg xylitol were orally administered with xylitol at a dose of 100 mg/kg daily from Day 6 of administration.
as §3, with “A” for “A cold plate”, “performed on the mice in the four groups described in (12) of the present example (Example 2)” for “performed”, “respective” for “the four”, “groups” for “groups described in (10) of the present example (Example 1)”
as §1, with “tests as with Example 1.” for “tests.”, “bortezomib,” for “paclitaxel,”, “D-threitol,” for “xylitol,”, “bortezomib” for “paclitaxel”, “D-threitol” for “xylitol”, “bortezomib+D-threitol).” for “paclitaxel+xylitol).”
as §2, with “bortezomib” for “paclitaxel”, “bortezomib+D-threitol” for “paclitaxel+xylitol”, “1” for “6”
The mice in the group receiving D-threitol and the group receiving bortezomib+D-threitol were orally administered with D-threitol at a dose of 5 mg/kg daily from Day 0.
A cold plate test was performed to examine the effect of D-threitol on paresthesia that is caused by a low temperature stimulus. […]

[3] = 1 mg/kg bortezomib + 5 mg/kg test substance orally daily from Day 0 (prevention)
[4] = 1 mg/kg bortezomib + 100 mg/kg orally daily from Day 6, on Day 12, vs group receiving 1 mg/kg bortezomib

| Structure (SMILES) | avoidance response score [1] | withdrawal response time (latent time) [2, 3] | withdrawal response time (latent time) [2, 4] |
| --- | --- | --- | --- |
| OC[C@@H](O)[C@H](O)CO [D-threitol] | maintained a score clearly lower than that of the group receiving paclitaxel | approximately similar to that of the control group | significantly longer withdrawal response time |
| OC[C@H](O)[C@H](O)[C@H](O)[C@@H](O)CO [L-talitol] | maintained a score clearly lower than that of the group receiving paclitaxel | approximately similar to that of the control group | significantly longer withdrawal response time |
| OC[C@@H](O)[C@H](O)[C@@H](O)CO [xylitol] | maintained a score clearly lower than that of the group receiving paclitaxel | approximately similar to that of the control group | significantly longer withdrawal response time |
